Test results taken from patent US20070149446A1, “Tamandarin analogs and fragments thereof and methods of making and using” (The Trustees of the University of Pennsylvania Center for …, priority 2003, published 2007).
Read-outs that look alike come from different tables or passages of the source.

Legend:
[1] = amide bond, 21-membered ring, HATU/NMM, CH3CN, 0.0 °C
[2] = amide bond, HATU/NMM, CH3CN, 25.0 °C, 17.0 h

Molecule: [N-Me-Ala^4]-Tamandarin B macrocycle
- ring closure, isolated yield ([1]; 4.8 mM): 48%

Molecule: [2-Naphthylala^5]-Tamandarin B macrocycle
- ring closure, isolated yield ([1]; 5.0 mM): 65%

Molecule: [Ser^6]-Tamandarin B macrocycle
- ring closure, isolated yield ([1]; 5.7 mM): 89%

Molecule: COc1ccc(C[C@H]2C(=O)O[C@H](C)[C@H](NC(=O)OC(C)(C)C)C(=O)N[C@H](C(C)C)[C@@H](O)CC(=O)O[C@@H](C(C)C)C(=O)N[C@@H](CC(C)C)C(=O)N[C@@H](C)C(=O)N2C)cc1
- ring closure, yield of all isomers ([2]; from CN[C@@H](Cc1ccc(OC)cc1)C(=O)O[C@H](C)[C@H](NC(=O)OC(C)(C)C)C(=O)N[C@H](C(C)C)[C@@H](O)CC(=O)O[C@H](C(=O)N[C@@H](CC(C)C)C(=O)N[C@@H](C)C(=O)O)C(C)C, 4.6 mM): 60%

Molecule: COc1ccc(C[C@H]2C(=O)O[C@H](C)[C@H](NC(=O)OC(C)(C)C)C(=O)N[C@H](C(C)C)[C@@H](O)CC(=O)O[C@@H](C(C)C)C(=O)N[C@@H](CC(C)C)C(=O)N(C)[C@@H](C)C(=O)N2C)cc1
- ring closure, yield of all isomers ([2]; from CN[C@@H](Cc1ccc(OC)cc1)C(=O)O[C@H](C)[C@H](NC(=O)OC(C)(C)C)C(=O)N[C@H](C(C)C)[C@@H](O)CC(=O)O[C@H](C(=O)N[C@@H](CC(C)C)C(=O)N(C)[C@@H](C)C(=O)O)C(C)C, 4.8 mM): 48%

Molecule: [Ala^4]-Tamandarin B macrocycle
- ring closure, isolated yield ([1]; 4.6 mM): 60%
